# Measurements as given in ChEMBL document CHEMBL1135816, “6-Aryl-1,4-dihydro-benzo[d][1,3]oxazin- 2-ones: a novel class of potent, selective, and orally active nonsteroidal progesterone receptor antagonists” (J Med Chem, 2002).
# pIC50: −log10 of the molar value.
# Columns and labels:
# [1] = target: T1, Mineralocorticoid receptor (Homo sapiens, UniProt P08235); assay: Antagonist activity against the Mineralocorticoid Receptor (MR); assay type: functional
# T1 sequence (P08235 whole entry): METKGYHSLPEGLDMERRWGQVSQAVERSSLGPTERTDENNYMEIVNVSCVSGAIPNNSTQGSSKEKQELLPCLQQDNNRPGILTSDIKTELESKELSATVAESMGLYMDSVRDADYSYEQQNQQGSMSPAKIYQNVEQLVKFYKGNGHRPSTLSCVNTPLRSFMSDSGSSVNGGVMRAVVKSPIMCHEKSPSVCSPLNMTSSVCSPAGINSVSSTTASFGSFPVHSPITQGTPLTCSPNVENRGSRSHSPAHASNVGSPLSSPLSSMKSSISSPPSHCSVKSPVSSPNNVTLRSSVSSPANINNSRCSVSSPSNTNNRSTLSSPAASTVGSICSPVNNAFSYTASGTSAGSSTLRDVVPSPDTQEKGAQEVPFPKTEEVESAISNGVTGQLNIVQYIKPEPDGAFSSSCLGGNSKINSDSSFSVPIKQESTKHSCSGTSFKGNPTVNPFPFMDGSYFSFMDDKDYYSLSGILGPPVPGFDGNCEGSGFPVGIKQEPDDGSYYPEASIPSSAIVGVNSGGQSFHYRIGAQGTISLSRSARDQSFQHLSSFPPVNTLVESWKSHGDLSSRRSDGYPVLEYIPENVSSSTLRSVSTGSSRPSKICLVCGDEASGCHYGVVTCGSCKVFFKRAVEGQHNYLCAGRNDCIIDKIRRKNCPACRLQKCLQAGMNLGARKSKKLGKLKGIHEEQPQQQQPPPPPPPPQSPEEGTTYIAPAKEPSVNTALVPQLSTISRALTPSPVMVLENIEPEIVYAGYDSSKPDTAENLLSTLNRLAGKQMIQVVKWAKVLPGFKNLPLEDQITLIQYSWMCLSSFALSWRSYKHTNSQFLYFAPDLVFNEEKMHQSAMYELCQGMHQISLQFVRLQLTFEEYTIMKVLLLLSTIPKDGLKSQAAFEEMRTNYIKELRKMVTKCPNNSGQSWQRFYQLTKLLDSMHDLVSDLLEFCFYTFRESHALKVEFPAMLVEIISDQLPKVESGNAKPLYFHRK
# Androgen receptor = target: T2, Androgen receptor (Homo sapiens, UniProt P10275); assay: Antagonist activity against the Androgen Receptor (AR)
# T2 sequence (P10275 whole entry): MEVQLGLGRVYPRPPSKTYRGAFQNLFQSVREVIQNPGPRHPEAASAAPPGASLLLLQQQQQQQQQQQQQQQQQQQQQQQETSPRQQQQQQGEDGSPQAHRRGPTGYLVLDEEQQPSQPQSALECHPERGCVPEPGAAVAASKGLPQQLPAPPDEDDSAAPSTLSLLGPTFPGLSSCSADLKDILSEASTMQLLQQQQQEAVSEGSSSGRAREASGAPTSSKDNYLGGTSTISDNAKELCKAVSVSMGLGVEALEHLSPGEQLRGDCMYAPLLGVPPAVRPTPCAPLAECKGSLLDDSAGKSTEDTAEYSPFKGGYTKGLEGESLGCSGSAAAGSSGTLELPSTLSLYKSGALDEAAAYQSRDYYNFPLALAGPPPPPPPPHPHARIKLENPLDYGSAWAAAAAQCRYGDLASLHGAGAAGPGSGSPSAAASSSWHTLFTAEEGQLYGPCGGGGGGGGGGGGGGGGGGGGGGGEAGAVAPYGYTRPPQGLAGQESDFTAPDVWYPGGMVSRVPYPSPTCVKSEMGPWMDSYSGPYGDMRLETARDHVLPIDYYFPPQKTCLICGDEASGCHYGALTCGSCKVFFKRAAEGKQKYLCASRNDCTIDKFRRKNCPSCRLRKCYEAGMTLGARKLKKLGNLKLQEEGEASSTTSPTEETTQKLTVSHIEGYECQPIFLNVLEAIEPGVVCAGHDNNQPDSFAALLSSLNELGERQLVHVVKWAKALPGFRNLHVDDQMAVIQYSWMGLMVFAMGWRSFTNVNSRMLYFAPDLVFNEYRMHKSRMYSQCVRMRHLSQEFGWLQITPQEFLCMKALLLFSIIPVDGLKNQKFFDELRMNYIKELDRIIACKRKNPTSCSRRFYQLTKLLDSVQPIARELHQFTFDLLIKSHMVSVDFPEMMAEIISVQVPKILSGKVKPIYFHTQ
# Glucocorticoid receptor = target: T3, Glucocorticoid receptor (Homo sapiens, UniProt P04150); assay: Antagonist activity against the Glucocorticoid Receptor (GR); assay type: functional
# T3 sequence (P04150 whole entry): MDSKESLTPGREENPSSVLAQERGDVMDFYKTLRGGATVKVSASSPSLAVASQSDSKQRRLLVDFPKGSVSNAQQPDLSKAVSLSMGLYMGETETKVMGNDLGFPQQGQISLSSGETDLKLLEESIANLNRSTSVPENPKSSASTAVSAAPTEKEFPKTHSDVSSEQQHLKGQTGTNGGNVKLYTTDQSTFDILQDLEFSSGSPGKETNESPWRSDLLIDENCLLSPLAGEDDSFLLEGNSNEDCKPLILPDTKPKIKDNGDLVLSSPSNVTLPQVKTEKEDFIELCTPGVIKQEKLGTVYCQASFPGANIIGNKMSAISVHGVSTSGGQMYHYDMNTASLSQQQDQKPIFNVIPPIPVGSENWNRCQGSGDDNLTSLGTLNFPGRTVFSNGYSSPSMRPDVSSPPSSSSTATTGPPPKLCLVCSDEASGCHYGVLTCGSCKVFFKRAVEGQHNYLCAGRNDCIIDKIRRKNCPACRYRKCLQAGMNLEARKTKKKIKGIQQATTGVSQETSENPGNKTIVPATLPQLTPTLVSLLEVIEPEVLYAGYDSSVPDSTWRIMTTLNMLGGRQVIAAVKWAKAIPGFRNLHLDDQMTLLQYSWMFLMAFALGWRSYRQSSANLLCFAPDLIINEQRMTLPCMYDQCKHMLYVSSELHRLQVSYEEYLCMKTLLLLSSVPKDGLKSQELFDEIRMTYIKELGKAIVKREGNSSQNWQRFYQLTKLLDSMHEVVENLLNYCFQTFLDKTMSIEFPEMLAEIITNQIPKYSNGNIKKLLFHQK
compound,measurement,setting,value
CC1(C)OC(=O)Nc2ccc(-c3ccc(F)c(Cl)c3)cc21,pIC50,[1],5.60
same,pIC50,Androgen receptor,6.68
same,pIC50,Glucocorticoid receptor,5.59
CC1(C)OC(=O)Nc2ccc(-c3cc(F)cc(C#N)c3)cc21,pIC50,[1],5.63
same,pIC50,Androgen receptor,5.89
same,pIC50,Glucocorticoid receptor,5.76
CC1(C)OC(=O)Nc2ccc(-c3coc(C#N)c3)cc21,pIC50,[1],< 5.00
same,pIC50,Androgen receptor,6.89
same,pIC50,Glucocorticoid receptor,< 5.00
CC1(C)OC(=O)Nc2ccc(-c3csc(C#N)c3)cc21,pIC50,[1],5.86
same,pIC50,Androgen receptor,6.55
same,pIC50,Glucocorticoid receptor,5.73
